Publication PMC10090446, “Population pharmacokinetic analysis and dosing optimization of polymyxin B in critically ill patients” (Frontiers in Pharmacology, 2023)
Positions of bridges follow the written chain, without caps; N, C: chain ends. Non-standard residues stand in square brackets, D forms with d. Residues, ends and D or L forms follow the SMILES beside them. *: point of attachment. X1 = CC[C@H](C)CCCCC(=O)*; Dab = NCC[C@H](N)C(=O)O

Experiment: Steady-state plasma concentrations of polymyxin B (total of B1, B2, B1-Ile) by LC-MS/MS
Format: in vivo
Conditions: human, iv, read-out: OUT (observed polymyxin B plasma concentration)
Text: We gather data from critically ill patients (≥18 years old) who were given intravenous drip polymyxin B treatment with blood concentration monitoring at the hospital from November 2021 to September 2022. The attending physician decided to administer polymyxin B. At the same time, patients who received continuous renal replacement therapy (CRRT) (n = 10) or extracorporeal membrane oxygenation (ECMO) (n = 2) at the time of blood collection were excluded. Patients’ information, including gender, age, WT, serum creatinine (Scr), CCR, ALB, APACHE-II, infection diagnosis, and pathogenic bacteria, were obtained from the electronic system for medical records. CCR was generated by adopting the Cockcroft—Gault equation with WT and age ([Cucci et al., 2022]). The Ethical Committees of the Second Affiliated Hospital of the South China University of Technology authorized the study (K-2022-020-01).
Patients were treated with polymyxin B, and plasma samples were collected ≥ 48 h after the treatment. Each patient contributed clinical samples, of which 37.5% (n = 24) were sampled with troughs (within 1 h before administration), 35.9% (n = 23) were sampled with peaks (within 1 h after the end of the infusion), and 26.6% (n = 17) were sampled at 6-8 h after the infusion. The dosing regimens of polymyxin B were a loading dose of 100 mg–150 mg and a maintenance dose of 50 mg–75 mg q12h, and the infusion duration was about 1–2 h. In preparation for analysis, samples were centrifuged for 10 min at 3000 r min^-1 after collection, and the upper plasma after centrifugation was stored at −20°C.
According to previous studies, total polymyxin B1, polymyxin B2, and polymyxin B1-Ile concentrations in human blood plasma were quantified using LC-MS/MS ([Meng et al., 2016]; [Hee et al., 2017]). The standard used in our experiments was the USP standard with the batch number of R104F0. The chromatographic column was the Kinetex C18 (3 μm × 2.1 mm×100 mm. Phenomenex). A: B mobile phase was 0.1% formic acid to acetonitrile. With changes in the linear velocity ratio, gradient elution was as follows: 15% −15% B, 0–2.0 min; 15%–10% B, 2.01–4.0 min; 10%–30% B, 4.01–5.0 min; 15% B, 5.01 min; and 15%–15% B, 5.02–10 min. The flow rate was constrained to 0.8 mL min^-1, and the column temperature was set to 40°C. The parent/daughter ion mass ratios used in the mass spectrometry were m/z 602.6/241.2 (polymyxin B1 and B1-Ile) and m/z 595.6/202.1 (polymyxin B2). Plasma samples (100 μL) were collected from centrifuged blood samples, mixed with 500 μL precipitant (acetonitrile with 6.67% formic acid) and vortexed well for 1 min. The lower limit of quantification (LLOQ) of the bioanalytical method used for quantifying polymyxin B1, B2, and B1-Ile concentrations was 0.19, 0.02 and 0.02 mg L^-1, respectively. The linear relationships of polymyxin B1, B2, and B1-Ile concentrations in the range of 0.19–24.13 mg L^-1, 0.02–2.7 mg L^-1 and 0.02–2.38 mg L^-1 were considered good (R^2 = 0.99677, R^2 = 0.99656, R^2 = 0.99484) and the accuracy was within 95.3%–105.3%, 92.2%–104.8%, and 95.8%–105.4%. […] Finally, 200 μL of the supernatant from the centrifugation of the combination at 14,000 r min^-1 for 10 min was employed to measure the amounts of polymyxin B.

CC[C@H](C)CCCCC(=O)N[C@@H](CCN)C(=O)N[C@H](C(=O)N[C@@H](CCN)C(=O)N[C@H]1CCNC(=O)[C@H]([C@@H](C)O)NC(=O)[C@H](CCN)NC(=O)[C@H](CCN)NC(=O)[C@H](CC(C)C)NC(=O)[C@@H](Cc2ccccc2)NC(=O)[C@H](CCN)NC1=O)[C@@H](C)O [polymyxin B] (X1-[Dab]T[Dab][Dab][Dab][dF]L[Dab][Dab]T; lactam 4-C)
level at 47.67 h (50 mg, patient ID 2, TIME 47.67, DOSE 50 every 12 from 0 to 36, DUR 1, WT 56, CCR 34.05, ALB 30.1, APACHE 20, single sample): 3.02 µg/mL | level at 50 h (50 mg, patient ID 6, TIME 50, DOSE 50 every 12 from 0 to 48, DUR 1, WT 60, CCR 81.34, ALB 36.6, APACHE 18, single sample): 4.48 µg/mL | level at 300 h (50 mg, patient ID 7, TIME 300, DOSE 50 from 0, ADDL 25, II 12, DUR 1, WT 52, CCR 121.16, ALB 32.1, APACHE 21, single sample): 2.64 µg/mL | level at 301 h (50 mg, patient ID 7, TIME 301, DOSE 50 from 0, ADDL 25, II 12, DUR 1, WT 52, CCR 121.16, ALB 32.1, APACHE 21, single sample): 7.72 µg/mL | level at 306.5 h (50 mg, patient ID 7, TIME 306.5, DOSE 50 from 0, ADDL 25, II 12, DUR 1, WT 52, CCR 121.16, ALB 32.1, APACHE 21, single sample): 4.19 µg/mL | level at 133.6 h (50 mg, patient ID 9, TIME 133.6, DOSE 50 from 0, ADDL 11, II 12, DUR 1, WT 55, CCR 34.79, ALB 30.8, APACHE 15, single sample): 3.74 µg/mL | level at 139 h (50 mg, patient ID 9, TIME 139, DOSE 50 from 0, ADDL 11, II 12, DUR 1, WT 55, CCR 34.79, ALB 30.8, APACHE 15, single sample): 3.19 µg/mL | level at 145 h (50 mg, patient ID 9, TIME 145, DOSE 50 from 0, ADDL 11, II 12, DUR 1, WT 55, CCR 34.79, ALB 30.8, APACHE 15, single sample): 2.89 µg/mL | level at 195 h (50 mg, patient ID 15, TIME 195, DOSE 50 every 12 from 133 (DUR 1, ADDL 11), WT 50, CCR 35.85, ALB 29.5, APACHE 39, single measurement): 4.6 µg/mL | level at 207 h (50 mg, patient ID 15, TIME 207, DOSE 50 every 12 from 133 (DUR 1, ADDL 11), WT 50, CCR 35.85, ALB 29.5, APACHE 39, single measurement): 2.25 µg/mL | level at 266.25 h (50 mg, patient ID 15, TIME 266.25, DOSE 50 every 12 from 133 (DUR 1, ADDL 11), WT 50, CCR 35.85, ALB 29.5, APACHE 39, single measurement): 4.87 µg/mL | level at 277 h (50 mg, patient ID 15, TIME 277, DOSE 50 every 12 from 133 (DUR 1, ADDL 11), WT 50, CCR 35.85, ALB 29.5, APACHE 39, single measurement): 2.42 µg/mL | level at 169.25 h (50 mg, patient ID 16, TIME 169.25, DOSE 50 every 12 from 0 (DUR 2, ADDL 14), WT 65, CCR 75.18, ALB 32, APACHE 31, single measurement): 6.98 µg/mL | level at 174 h (50 mg, patient ID 16, TIME 174, DOSE 50 every 12 from 0 (DUR 2, ADDL 14), WT 65, CCR 75.18, ALB 32, APACHE 31, single measurement): 2.97 µg/mL | level at 179 h (50 mg, patient ID 16, TIME 179, DOSE 50 every 12 from 0 (DUR 2, ADDL 14), WT 65, CCR 75.18, ALB 32, APACHE 31, single measurement): 2.46 µg/mL | level at 120 h (50 mg, patient ID 17, TIME 120, DOSE 50 every 12 from 0 (DUR 1, ADDL 10), WT 75, CCR 55.08, ALB 38.8, APACHE 22, single measurement): 4.53 µg/mL | level at 121.48 h (50 mg, patient ID 17, TIME 121.48, DOSE 50 every 12 from 0 (DUR 1, ADDL 10), WT 75, CCR 55.08, ALB 38.8, APACHE 22, single measurement): 2.35 µg/mL | level at 62.5 h (50 mg, patient ID 18, TIME 62.5, DOSE 50 at 0, 12, 24, 36, 48, 60, DUR 2, WT 80, CCR 169.94, ALB 41.5, APACHE 29, single measurement): 4.86 µg/mL | level at 66 h (50 mg, patient ID 18, TIME 66, DOSE 50 at 0, 12, 24, 36, 48, 60, DUR 2, WT 80, CCR 169.94, ALB 41.5, APACHE 29, single measurement): 1.8 µg/mL | level at 72 h (50 mg, patient ID 18, TIME 72, DOSE 50 at 0, 12, 24, 36, 48, 60, DUR 2, WT 80, CCR 169.94, ALB 41.5, APACHE 29, single measurement): 0.839 µg/mL | level at 97 h (75 mg, patient ID 12, TIME 97, DOSE 75 from 0, ADDL 9, II 12, DUR 1, WT 60, CCR 104.47, ALB 33.9, APACHE 24, single sample): 9.56 µg/mL | level at 102 h (75 mg, patient ID 12, TIME 102, DOSE 75 from 0, ADDL 9, II 12, DUR 1, WT 60, CCR 104.47, ALB 33.9, APACHE 24, single sample): 4.84 µg/mL | level at 108 h (75 mg, patient ID 12, TIME 108, DOSE 75 from 0, ADDL 9, II 12, DUR 1, WT 60, CCR 104.47, ALB 33.9, APACHE 24, single sample): 2.99 µg/mL | level at 74.33 h (75 mg, patient ID 15, TIME 74.33, after DOSE 75 at 73 (DUR 1, ADDL 4, II 12), WT 50, CCR 35.85, ALB 29.5, APACHE 39, single measurement): 8.9 µg/mL | level at 217 h (75 mg, patient ID 22, TIME 217, DOSE 75 every 12 from 0 (ADDL 18), DUR 1, WT 60, CCR 155.65, ALB 24.3, APACHE 30, single measurement): 3.62 µg/mL | level at 222 h (75 mg, patient ID 22, TIME 222, DOSE 75 every 12 from 0 (ADDL 18), DUR 1, WT 60, CCR 155.65, ALB 24.3, APACHE 30, single measurement): 2.06 µg/mL | level at 228 h (75 mg, patient ID 22, TIME 228, DOSE 75 every 12 from 0 (ADDL 18), DUR 1, WT 60, CCR 155.65, ALB 24.3, APACHE 30, single measurement): 1.06 µg/mL | level at 60.5 h (patient ID 1, TIME 60.5, DOSE 100 at 0 then 50 every 12 to 48, DUR 1, WT 58, CCR 69.29, ALB 23.1, APACHE 30, single sample): 2.27 µg/mL | level at 325 h (patient ID 3, TIME 325, DOSE 100 at 0 then 50 from 12, ADDL 27, II 12, DUR 1, WT 57, CCR 61.5, ALB 33.8, APACHE 21, single sample): 6.6 µg/mL
